One may read the pIC50 as the negative decadic logarithm of the IC50, by convention in mol/L. A low value points to a large IC50.

Structures are written as SMILES. pIC50: −log10 of the molar value.

The record followed here is patent US20240208968A1, “ALPHA V BETA 6 AND ALPHA V BETA 1 INTEGRIN INHIBITORS AND USES THEREOF” (DiCE Molecules SV, Inc., priority 2021, published 2024).

For one assay, the target named is αvβ1 (Homo sapiens, UniProt P05556+P06756). In words: Solid Phase Integrin αvβ1 Assay. The assay is classed as binding. Put shortly: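 Wells coated with 1 µg/mL recombinant TGFb1-LAP and blocked with 2% BSA/TBST, 1 mM MnCl2; αvβ1 (added at 0.2 µg/mL) and compound incubated 90 min at room temperature. Bound integrin detected by streptavidin-HRP (20 min) and TMB after Mn-containing washes; IC50 by four-parameter logistic fit.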

The next assay concerns the target αvβ6 (Homo sapiens, UniProt P06756+P18564). Briefly: Solid Phase Integrin αvβ6 Assay. It counts as binding. In outline: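 Plates coated with 1 μg/mL recombinant TGFb1-LAP; compounds and αvβ6 (0.2 μg/mL diluted stock) incubated 1 h at room temperature in 2% BSA/TBST with 1 mM MnCl2. Bound integrin detected with streptavidin-HRP and TMB; IC50 from four-parameter logistic fits.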

Chain of αvβ1 (P06756 31-992 limits assumed): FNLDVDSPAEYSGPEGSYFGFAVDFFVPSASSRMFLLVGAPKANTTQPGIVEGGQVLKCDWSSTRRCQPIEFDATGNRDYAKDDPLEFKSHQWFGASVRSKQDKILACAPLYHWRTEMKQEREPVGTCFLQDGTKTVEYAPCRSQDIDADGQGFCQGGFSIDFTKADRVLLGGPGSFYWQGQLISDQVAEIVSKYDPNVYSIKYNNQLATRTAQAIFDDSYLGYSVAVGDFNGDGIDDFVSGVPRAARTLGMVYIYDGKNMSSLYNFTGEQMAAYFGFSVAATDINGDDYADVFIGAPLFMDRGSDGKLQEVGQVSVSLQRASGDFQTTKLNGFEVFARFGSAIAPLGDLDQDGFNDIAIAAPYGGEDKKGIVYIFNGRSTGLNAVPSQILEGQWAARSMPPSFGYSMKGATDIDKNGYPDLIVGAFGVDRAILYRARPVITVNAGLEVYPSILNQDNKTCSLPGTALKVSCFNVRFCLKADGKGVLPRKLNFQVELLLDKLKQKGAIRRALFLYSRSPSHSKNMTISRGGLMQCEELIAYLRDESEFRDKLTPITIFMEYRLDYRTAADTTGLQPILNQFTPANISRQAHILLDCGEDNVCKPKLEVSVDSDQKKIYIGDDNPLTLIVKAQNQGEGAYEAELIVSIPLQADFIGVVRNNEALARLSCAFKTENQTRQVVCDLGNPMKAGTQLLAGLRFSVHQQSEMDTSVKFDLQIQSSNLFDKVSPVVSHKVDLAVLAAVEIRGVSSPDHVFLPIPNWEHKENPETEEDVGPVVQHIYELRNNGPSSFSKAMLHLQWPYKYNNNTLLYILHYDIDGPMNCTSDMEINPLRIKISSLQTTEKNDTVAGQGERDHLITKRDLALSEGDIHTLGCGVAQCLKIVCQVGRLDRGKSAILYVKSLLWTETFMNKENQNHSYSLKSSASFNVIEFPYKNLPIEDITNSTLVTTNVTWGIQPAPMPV
Chain of αvβ1 (P05556 21-728 limits assumed): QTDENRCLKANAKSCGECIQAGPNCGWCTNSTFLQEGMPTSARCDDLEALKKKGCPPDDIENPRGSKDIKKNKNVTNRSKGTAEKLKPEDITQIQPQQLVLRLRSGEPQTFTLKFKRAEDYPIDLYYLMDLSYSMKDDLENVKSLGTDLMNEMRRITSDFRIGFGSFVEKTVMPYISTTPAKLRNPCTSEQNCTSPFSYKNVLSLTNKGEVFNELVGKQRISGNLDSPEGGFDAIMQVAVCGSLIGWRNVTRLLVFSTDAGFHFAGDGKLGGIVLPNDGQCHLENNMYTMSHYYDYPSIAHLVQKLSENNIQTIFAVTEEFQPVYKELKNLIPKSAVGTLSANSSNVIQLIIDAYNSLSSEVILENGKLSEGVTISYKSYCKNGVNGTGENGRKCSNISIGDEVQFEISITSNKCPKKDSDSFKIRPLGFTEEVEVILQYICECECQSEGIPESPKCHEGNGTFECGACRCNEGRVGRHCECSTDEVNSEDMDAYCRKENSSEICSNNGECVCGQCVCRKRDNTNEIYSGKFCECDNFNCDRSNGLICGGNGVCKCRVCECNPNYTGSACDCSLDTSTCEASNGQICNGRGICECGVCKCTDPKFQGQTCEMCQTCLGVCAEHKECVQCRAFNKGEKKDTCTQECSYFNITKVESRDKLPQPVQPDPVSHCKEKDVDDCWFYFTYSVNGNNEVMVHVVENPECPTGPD
Chain of αvβ6 (P06756 31-992 limits assumed): as the sequence (P06756 31-992 limits assumed) above
Chain of αvβ6 (P18564 22-707 limits assumed): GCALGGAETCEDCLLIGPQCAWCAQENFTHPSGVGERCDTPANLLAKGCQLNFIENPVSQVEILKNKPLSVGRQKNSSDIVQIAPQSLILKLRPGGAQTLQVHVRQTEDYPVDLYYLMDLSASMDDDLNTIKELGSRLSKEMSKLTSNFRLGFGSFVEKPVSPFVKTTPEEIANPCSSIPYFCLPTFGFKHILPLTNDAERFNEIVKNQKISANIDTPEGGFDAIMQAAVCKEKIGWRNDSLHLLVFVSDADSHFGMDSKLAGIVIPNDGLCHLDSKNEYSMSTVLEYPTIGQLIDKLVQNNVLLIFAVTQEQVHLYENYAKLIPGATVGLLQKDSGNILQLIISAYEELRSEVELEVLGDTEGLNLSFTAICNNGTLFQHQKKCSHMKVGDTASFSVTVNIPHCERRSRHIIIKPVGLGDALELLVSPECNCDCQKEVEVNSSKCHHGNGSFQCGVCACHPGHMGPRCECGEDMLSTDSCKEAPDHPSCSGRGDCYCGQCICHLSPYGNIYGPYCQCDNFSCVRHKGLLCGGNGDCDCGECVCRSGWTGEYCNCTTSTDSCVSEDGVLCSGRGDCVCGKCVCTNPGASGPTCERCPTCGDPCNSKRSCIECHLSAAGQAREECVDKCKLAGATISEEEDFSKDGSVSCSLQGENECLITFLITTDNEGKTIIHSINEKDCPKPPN

On to `C[C@H]1C[C@@H](C(=O)NC[C@@H](C(=O)O)c2ccc3ccccc3c2)CN(CCCc2ccc3c(n2)NCCC3)C1` [Compound 645], for which the pIC50 against αvβ1 was 6.00 to 7.00; against αvβ6, less than 6.00.
For `C[C@H]1C[C@@H](C(=O)NC[C@@H](C(=O)O)c2cccc(-c3ccccc3)c2)CN(CCCc2ccc3c(n2)NCCC3)C1` [Compound 646], the pIC50 at αvβ1 is less than 6.00; at αvβ6, 6.00 to 7.00.
In the case of `CC1(C)CN(c2cc([C@@H](CO[C@@H]3CCCN(CCCc4ccc5c(n4)NCCC5)C3)CC(=O)O)ccc2Cl)CCO1` [Compound 647], the pIC50 against αvβ1 and against αvβ6 was greater than 7.00 throughout.
As for `CC1(C)CN(c2cc([C@H](CO[C@@H]3CCCN(CCCc4ccc5c(n4)NCCC5)C3)CC(=O)O)ccc2Cl)CCO1` [Compound 648], the pIC50 against αvβ1 and at αvβ6 was 6.00 to 7.00 each time.
Take `O=C(O)C[C@@H](CO[C@@H]1CCCN(CCCc2ccc3c(n2)NCCC3)C1)c1cncc(N2CCC(F)(F)CC2)c1` [Compound 649]: the negative-log IC50 (pIC50) against αvβ1 and at αvβ6 was greater than 7.00 in each case.
Take `CC1(C)CN(c2cc(Cl)cc(C(CO[C@@H]3CCCN(CCCc4ccc5c(n4)NCCC5)C3)CC(=O)O)c2)CCO1` (stereo partly shown) [Compound 650]: the pIC50 at αvβ1 and on αvβ6 was greater than 7.00 throughout.
Regarding `CC1(C)CN(c2cccc([C@H](CO[C@@H]3CCCN(CCCc4ccc5c(n4)NCCC5)C3)CC(=O)O)c2)CCC1(F)F` [Compound 651], the negative-log IC50 (pIC50) against αvβ1 and at αvβ6 was greater than 7.00 in each case.
On to `CC1(C)CN(c2cccc([C@@H](CO[C@@H]3CCCN(CCCc4ccc5c(n4)NCCC5)C3)CC(=O)O)c2)CCC1(F)F` [Compound 652], for which the negative-log IC50 (pIC50) against αvβ1 and against αvβ6 was greater than 7.00 each time.
